ChEMBL document CHEMBL2321677, “Cyclic analogs of galanin and neuropeptide Y by hydrocarbon stapling” (Bioorg Med Chem, 2013)
Calls of active or inactive are those of the source. The calls are words filed in the database; no cut-off is given here. Bridge positions count the residues as written; N and C are the ends. Square brackets hold non-standard residues; d marks the D form. Peptide text beside a SMILES is read from it. * marks the point of attachment. X1 = CC(=O)N(C(=O)CCCCCN)[C@@H](C)C(=O)*; S5 = C=CCCC[C@](C)(N)C(=O)O; Sar = CNCC(=O)O

How the values were obtained:
Mus musculus [1] = assay: Anticonvulsant activity in CF1 albino mouse assessed as protection against 6Hz partial psychomotor seizure at 1 nmol/5 ul, icv after 0.5 hrs relative to control; assay type: functional, organism-based
Mus musculus [2] = assay: Neurotoxicity against CF1 albino mouse assessed as motor impairment at 0.1 nmol/5 ul, icv after 0.5 hrs by rotarod test; assay type: toxicity, organism-based; conditions: in vivo, icv_or_intrathecal
[3] = Half life in rat serum by HPLC analysis; assay type: ADME, cell-free
[4] = n-octanol-water partition coefficient, log D of the compound by shake-flask method; assay type: physicochemical
[5] = n-octanol-water partition coefficient, log D of the compound by HPLC capacity factor method; assay type: physicochemical
Galanin receptor type 1 = biological target: T1, Galanin receptor type 1 (Homo sapiens, UniProt P47211); assay: Displacement of euporium-galanin from human GalR1 after 1.5 hrs by DELFIA assay
T1 sequence (P47211 whole entry): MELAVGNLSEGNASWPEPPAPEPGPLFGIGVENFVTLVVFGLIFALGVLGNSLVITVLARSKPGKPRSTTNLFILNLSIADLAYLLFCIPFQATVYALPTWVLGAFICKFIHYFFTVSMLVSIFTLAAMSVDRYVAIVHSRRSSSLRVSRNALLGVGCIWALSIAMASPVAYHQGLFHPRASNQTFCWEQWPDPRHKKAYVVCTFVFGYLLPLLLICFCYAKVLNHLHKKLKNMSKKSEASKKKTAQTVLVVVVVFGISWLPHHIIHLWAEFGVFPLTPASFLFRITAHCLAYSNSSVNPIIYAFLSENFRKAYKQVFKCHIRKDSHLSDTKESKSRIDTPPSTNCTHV

Galanin receptor type 2 = biological target: T2, Galanin receptor type 2 (Homo sapiens, UniProt O43603); assay: Displacement of euporium-galanin from human GalR2 after 1.5 hrs by DELFIA assay
T2 sequence (O43603 whole entry): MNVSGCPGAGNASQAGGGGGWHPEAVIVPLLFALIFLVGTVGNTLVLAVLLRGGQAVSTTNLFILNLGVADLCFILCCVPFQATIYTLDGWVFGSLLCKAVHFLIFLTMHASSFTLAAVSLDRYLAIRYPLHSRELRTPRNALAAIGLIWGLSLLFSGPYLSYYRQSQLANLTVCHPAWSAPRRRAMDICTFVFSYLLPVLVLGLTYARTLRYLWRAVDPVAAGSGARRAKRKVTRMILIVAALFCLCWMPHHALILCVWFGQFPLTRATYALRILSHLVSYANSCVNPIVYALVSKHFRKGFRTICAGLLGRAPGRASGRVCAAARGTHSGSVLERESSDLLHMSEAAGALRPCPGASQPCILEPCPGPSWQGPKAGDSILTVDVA

[6] = biological target: T3, Neuropeptide Y receptor type 2 (Homo sapiens, UniProt P49146); assay: Agonist activity at human NPY2R expressed inj CHOK1 cells assessed as inhibition of forskolin-stimulated cAMP production after 30 mins by luminescence assay; assay type: functional, cell-based, CHO-K1
T3 sequence (P49146 whole entry): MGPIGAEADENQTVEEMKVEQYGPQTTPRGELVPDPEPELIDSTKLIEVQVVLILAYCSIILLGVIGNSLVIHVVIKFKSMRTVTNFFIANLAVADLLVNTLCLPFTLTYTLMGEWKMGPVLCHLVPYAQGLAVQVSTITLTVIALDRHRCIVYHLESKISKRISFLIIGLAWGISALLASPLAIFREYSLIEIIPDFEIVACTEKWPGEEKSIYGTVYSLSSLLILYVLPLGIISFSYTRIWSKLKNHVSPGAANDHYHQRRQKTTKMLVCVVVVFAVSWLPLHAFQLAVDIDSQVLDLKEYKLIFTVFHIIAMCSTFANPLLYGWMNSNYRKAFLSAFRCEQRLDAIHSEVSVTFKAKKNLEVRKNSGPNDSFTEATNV

SMILES	Activity (Mus musculus [1])	Activity (Mus musculus [2])	half-life [3] [h]	logD [4]	chromatographic logD [5]	Ki (Galanin receptor type 1) [nM]	Ki (Galanin receptor type 2) [nM]	EC50 [6] [nM]
CC[C@H](C)[C@H](NC(=O)[C@H](Cc1ccc(O)cc1)NC(=O)[C@H](Cc1cnc[nH]1)NC(=O)[C@H](CCCNC(=N)N)NC(=O)[C@H](C)N(C(=O)CCCCCN)C(=O)[C@]1(C)CCC/C=C\CCC[C@](C)(NC(=O)[C@H](Cc2ccc(O)cc2)NC(C)=O)C(=O)N[C@@H](CCCCN)C(=O)N[C@@H](CCCCN)C(=O)N[C@@H](CCCCN)C(=O)N1)C(=O)N[C@@H](CC(N)=O)C(=O)N[C@@H](CC(C)C)C(=O)N[C@@H](CC(C)C)C(=O)N[C@H](C(=O)N[C@@H](CCCNC(=N)N)C(=O)N[C@@H](CCC(N)=O)C(=O)N[C@@H](CCCNC(=N)N)C(=O)N[C@@H](Cc1ccc(O)cc1)C(N)=O)[C@@H](C)O	Active	–	–	–	–	–	–	–
CC[C@H](C)[C@H](NC(=O)[C@H](Cc1ccc(O)cc1)NC(=O)[C@H](Cc1c[nH]cn1)NC(=O)[C@H](CCCN=C(N)N)NC(=O)[C@H](CC(C)C)NC(=O)[C@H](C)NC(=O)[C@H](CO)NC(=O)[C@H](Cc1ccc(O)cc1)NC(=O)[C@H](Cc1ccc(O)cc1)NC(=O)[C@H](CCCN=C(N)N)NC(=O)[C@H](C)NC(=O)[C@H](CC(C)C)NC(=O)[C@H](CC(=O)O)NC(=O)[C@H](CCC(=O)O)NC(=O)[C@H](C)NC(=O)[C@@H]1CCCN1)C(=O)N[C@@H](CC(N)=O)C(=O)N[C@@H](CC(C)C)C(=O)N[C@H](C(=O)N[C@H](C(=O)N[C@@H](CCCN=C(N)N)C(=O)N[C@@H](CCC(N)=O)C(=O)N[C@@H](CCCN=C(N)N)C(=O)N[C@@H](Cc1ccc(O)cc1)C(=O)O)[C@@H](C)O)[C@@H](C)CC	inactive	Non-toxic	–	–	–	–	–	–
CC(C)C[C@H](NC(=O)[C@H](CC(C)C)NC(=O)[C@H](Cc1ccc(O)cc1)NC(=O)CNC(=O)[C@H](C)NC(=O)[C@H](CO)NC(=O)[C@H](CC(N)=O)NC(=O)[C@H](CC(C)C)NC(=O)[C@@H](NC(=O)[C@H](Cc1c[nH]c2ccccc12)NC(=O)CN)[C@@H](C)O)C(=O)NCC(=O)N1CCC[C@H]1C(=O)N[C@@H](Cc1cnc[nH]1)C(=O)N[C@@H](C)C(=O)N[C@H](C(N)=O)C(C)C	inactive	Non-toxic	0.13	–	–	–	–	–
CC[C@H](C)[C@H](NC(=O)[C@H](Cc1ccc(O)cc1)NC(=O)[C@H](Cc1cnc[nH]1)NC(=O)[C@H](CCCNC(=N)N)NC(=O)[C@H](C)N(C(C)=O)C(=O)CCCCCN)C(=O)N[C@@H](CC(N)=O)C(=O)N[C@@H](CC(C)C)C(=O)N[C@H](C(=O)N[C@H](C(=O)N[C@@H](CCCNC(=N)N)C(=O)N[C@@H](CCC(N)=O)C(=O)N[C@@H](CCCNC(=N)N)C(=O)N[C@@H](Cc1ccc(O)cc1)C(N)=O)[C@@H](C)O)[C@@H](C)CC (X1-RHYINLITRQRY-NH2)	–	–	0.57	-2.13	–	–	–	–
CNCC(=O)N[C@@H](Cc1c[nH]c2ccccc12)C(=O)N[C@H](C(=O)N[C@@H](CC(C)C)C(=O)N[C@@H](CC(N)=O)C(=O)N[C@@H](CO)C(=O)N[C@@H](C)C(=O)NCC(=O)N[C@@H](Cc1ccc(O)cc1)C(=O)N[C@@H](CC(C)C)C(=O)N[C@@H](CC(C)C)C(=O)NCC(=O)N1CCC[C@H]1C(=O)N[C@@]1(C)CCC/C=C\CCC[C@@](C)(C(=O)N[C@@H](CCCCN)C(N)=O)NC(=O)[C@H](CCCCN)NC(=O)[C@H](CCCCN)NC(=O)[C@H](CCCCN)NC1=O)[C@@H](C)O (H-[Sar]WTLNSAGYLLGP[S5]KKK[S5]K-NH2; staple (Z) 14-18)	Active	Non-toxic	15.7	–	0.78	3.8	15.6	–
CC(=O)N[C@@H](C)C(=O)N[C@@H](CCCNC(=N)N)C(=O)N[C@@H](Cc1cnc[nH]1)C(=O)N[C@@H](Cc1ccc(O)cc1)C(=O)N[C@@]1(C)CCC/C=C/CCC[C@@](C)(C(=O)N[C@@H](CCCNC(=N)N)C(=O)N[C@@H](CCC(N)=O)C(=O)N[C@@H](CCCNC(=N)N)C(=O)N[C@@H](Cc2ccc(O)cc2)C(N)=O)NC(=O)[C@H](CC(C)C)NC(=O)[C@H](CC(C)C)NC(=O)[C@H](CC(N)=O)NC1=O (Ac-ARHY[S5]NLL[S5]RQRY-NH2; staple (E) 5-9)	Active	Toxic	2.7	-0.71	–	–	–	–
CC[C@H](C)[C@H](NC(=O)[C@H](Cc1ccc(O)cc1)NC(=O)[C@H](Cc1cnc[nH]1)NC(=O)[C@H](CCCN=C(N)N)NC(=O)[C@H](C)N(C(=O)CCCCCN)C(=O)[C@]1(C)CCC/C=C\CCC[C@](C)(NC(=O)[C@H](Cc2ccc(O)cc2)NC(C)=O)C(=O)N[C@@H](CCCCN)C(=O)N[C@@H](CCCCN)C(=O)N[C@@H](CCCCN)C(=O)N1)C(=O)N[C@@H](CC(N)=O)C(=O)N[C@@H](CC(C)C)C(=O)N[C@@H](CC(C)C)C(=O)N[C@H](C(=O)N[C@@H](CCCN=C(N)N)C(=O)N[C@@H](CCC(N)=O)C(=O)N[C@@H](CCCN=C(N)N)C(=O)N[C@@H](Cc1ccc(O)cc1)C(N)=O)[C@@H](C)O	–	Non-toxic	1.8	0.08	–	–	–	403
CNCC(=O)N[C@@H](Cc1c[nH]c2ccccc12)C(=O)N[C@H](C(=O)N[C@@H](CC(C)C)C(=O)N[C@@H](CC(N)=O)C(=O)N[C@@H](CO)C(=O)N[C@@]1(C)CCC/C=C/CCC[C@@](C)(C(=O)NCC(=O)N2CCC[C@H]2C(=O)N[C@@H](CCCCN)C(=O)N[C@@H](CCCCN)C(=O)N[C@@H](CCCCN)C(=O)N[C@@H](CCCCN)C(N)=O)NC(=O)[C@H](CC(C)C)NC(=O)[C@H](Cc2ccc(O)cc2)NC(=O)CNC1=O)[C@@H](C)O (H-[Sar]WTLNS[S5]GYL[S5]GPKKKK-NH2; staple (E) 7-11)	Active	Non-toxic	6.4	–	0.71	37.5	119	–
